Where two headings read alike, the source gives them in different places.
Experiments:
[1] = test system: GCV- or MBV-resistant HCMV variants (ORF-UL97 mutants); assay: HCMV reporter-based antiviral assays, series of GCV- or MBV-resistant variants; type: cell-based, human cytomegalovirus
Description: For the infection experiments, stocks of the following recombinant, reporter protein-expressing viruses (GFP or YFP (i.e., green or yellow fluorescent protein, respectively)) were propagated (in permissive cells), determined in their infectious titers performing the respective reporter assays, stored by aliquots at −80 °C, and used for the assessment of antiviral drug activities: human cytomegalovirus HCMV AD169-GFP (HFFs); murine cytomegalovirus MCMV C3X-GFP (MEFs); guinea pig cytomegalovirus GPCMV v403-GFP (GPEFs); human herpesvirus type 6A HHV-6A U1102-GFP (J-Jhan); herpes simplex virus type 1 HSV-1 166v VP22-GFP (HFFs); varicella zoster virus VZV Oka-GFP (HFFs); Epstein-Barr virus EBV Akata-GFP (Akata-BX1-GFP carrier cells; kindly provided by Lindsey Hutt-Fletcher and Rona Scott, Dept. Microbiol. […]
Due to the fact that the HCMV-encoded protein kinase pUL97 represents a functional and structural ortholog of the host CDKs (vCDK/pUL97), the viral mutants of ORF-UL97 were assessed for sensitivity against CDK7 inhibitors. […] These HCMVs (i.e., UL97 mutants C592G, H520Q (GCV-res.) L397R (MBV-res.) M460I, T409M, H411Y, C480F, F432S, C603W (GCV- and MBV-double res.), and H469V (not determined yet)) were used for comparative analysis in HCMV reporter-based antiviral assays.

HCMV UL97-H469V = test system: HCMV UL97-H469V; design: method as in PMID 31940472; key: R-high, high-level drug resistance; R-int, intermediate-level drug resistance; R-low, low-level drug resistance; S, drug sensitivity; settings: cited from earlier work
rKSHV.219-GFP/RFP = assay: KSHV-GFP/RFP reporter assay in iSLK.219 cells; type: cell-based, Kaposi’s sarcoma-associated herpesvirus
Source text: The virus recombinants VZV Oka-GFP and rKSHV.219-GFP/RFP were used for the infection of HFFs (virus stock VZV Oka-GFP applied as a cell-bound inoculum as described before) or were continuously passaged in iSLK.219 carrier cells, respectively (Figure 1). The conditions of the GFP/RFP-based assays were adapted to both the 96 well (Figure 1A,B) and 12 well formats, and details including the assessment of antiviral reference drugs are given (Figure 1C,D).
(§1) The virus recombinants VZV Oka-GFP and rKSHV.219-GFP/RFP were used for the infection of HFFs (VZV) or were continuously passaged in iSLK.219 carrier cells (KSHV), respectively, and cell viability was determined by NRA performed with uninfected HFFs or uninduced iSLK.219 cells, respectively. (A,B) Schematic depiction of the assay systems performed in a 96 well plate format. […] For the VZV-GFP system, virus stock VZV Oka-GFP was applied as a cell-bound infectious inoculum. After a 90 min period of inoculum adsorption to the cell surfaces, antiviral compounds were added to the culture media at serial dilutions (DMSO served as a solvent control for drug treatment of infected cells, while mock-infected cells served as a negative control). For the KSHV-GFP/RFP system, iSLK.219 cell lytic replication of KSHV (RFP reporter signal) was induced by the addition of 0.05 or 0.5 µg/mL doxycycline (dox) to the culture media. Cultivated dox-induced iSLK.219 cells were treated with antiviral compounds added at serial dilutions (DMSO served as a positive infection solvent control, while dox-untreated mock cells served as a negative control). HFFs or iSLK.219 cells were harvested at 4 d p.i. or 1 d after treatment, respectively, fixed by a 10 min incubation with 10% formalin, washed with PBS, and used for quantitation of the GFP or RFP reporter signal by PicoMD counting (ImageXpress® Pico device, Molecular Devices LLC, San Jose, CA, USA), with data evaluation using CellReporterXpress® software (version 2.9.3.1183, Molecular Devices LLC) as described earlier in [63]. (C) The antiviral activity of the reference drugs was determined with the VZV-GFP system in the 96 well format. EC50 values refer to measurements in quadruplicate, and the mean values ± SD of two experimental replicates are given. (D) The antiviral activity of the reference drugs was determined with the KSHV-GFP/RFP system in the 96 well format. EC50 values refer to measurements in triplicate, and the mean values ± SD are given for each of the two depicted experimental replicates.

[2] = Neutral Red uptake assay (NRA), iSLK.219 cells; type: cell-based; settings: human, read-out: CC50 (KSHV-GFP/RFP system)
Description: as §1

Compound	drug resistance / sensitivity of the GCV- and MBV-resistant HCMVs [1]	Reported phenotype UL97-H469V (HCMV UL97-H469V)	EC50 (rKSHV.219-GFP/RFP; Human gammaherpesvirus 8, read-out: KSHV EC50, iSLK.219, 96 well, induced with 0.05 μg/mL dox)	EC50 (rKSHV.219-GFP/RFP; Human gammaherpesvirus 8, read-out: KSHV EC50, iSLK.219, 96 well, induced with 0.5 μg/mL dox)	CC50 ([2]; marked 0.05 μg/mL dox)	CC50 ([2]; marked 0.5 μg/mL dox)
Nc1ccn(C[C@@H](CO)OCP(=O)(O)O)c(=O)n1 [CDV, cidofovir]	all viruses showed sensitivity	nd | nd | S	–	–	–	–
Nc1nc(O)c2ncn(COC(CO)CO)c2n1 [GCV, ganciclovir]	–	–	200 ± 100 nM	200 nM	> 100000 nM	> 100000 nM

Source: article PMC10892818, “An Antiherpesviral Host-Directed Strategy Based on CDK7 Covalently Binding Drugs: Target-Selective, Picomolar-Dose, Cross-Virus Reactivity” (Pharmaceutics, 2024)
